{"source": "paper PMC6586287", "about": "“Blocking transmembrane219 protein signaling inhibits autophagy and restores normal cell death” (PLoS ONE, 2019)", "key": {"[1]": {"tested_on": "LC3 processing in Vero cells", "experiment": "LC3-II punctate staining, LC3-mRFP transfected Vero cells", "format": "cell-based", "procedure": "Immunostaining was performed as described previously (44). Briefly, cells were grown on a coverslip overnight at 5×10^5 cells/ml. 1 μl of Hoechst stain (10 μg/μl) was added to the cells for 10 min at 37°C. For tracking TM219 short cytoplasmic peptide assay, we pretreated the cells with the peptides at concentration of 0, 25, or 250 nM, then added 1 μM IGFBP3 for an hour in DMEM serum free medium. Cells were fixed with 4% paraformaldehyde and permeabilized with 1% triton x100. Cells were then blocked overnight with 10% fetal bovine serum (FBS) in PBS. Finally, cells were stained with streptavidin conjugated to Alex555 (Thermofisher Scientific) for 30 minutes in the same blocking buffer. For immunostaining, cells were stained with the primary antibody according to the manufacturer’s recommendation in the same blocking buffer. The cells were washed 10 times with PBS. Cells were blocked for 1 h with 10% FBS and then stained with secondary antibody conjugated to fluorescence dye (Thermofisher Scientific). As controls, we used secondary antibodies alone. Cells were washed 10 times with PBS and mounted with fluoromount G (Microscopic Science) before examination.\nWe stained the intact cellular mitochondria using TMRM dye according to the provider recommendations (Thermofisher Scientific). To evaluate the cell membrane permeability in 3D culture, we used membrane impermeable dye propodeum iodide (PI), and the membrane permeable dye (Hoechst dye) to stain the cell nuclei according to the manufacturer recommendations (Thermofisher Scientific). For autophagy efflux assay, we used chloroquine (Sigma-Alderish) (CQ) at final concentration of 200 μM as described previously. Collected images were analyzed with ImageJ software."}, "MCF7 cells": {"tested_on": "MCF7 cells", "experiment": "pHLIP-Cy3 insertion into cell membrane, fluorescence microscopy, MCF7 cells", "format": "cell-based, human", "conditions": "pH 7.4 or pH 5.5, 5 min", "procedure": "Fig 6 TM219 short cytoplasmic protein tail peptide disrupts the interaction between calmodulin and TM219 protein. […] As the concentration of the free peptide increased, the changes in FP signal decreased. […] B- MCF7 cells treated with pHLIP-cy3 peptide at pH 7.4 or pH 5.5 for 5 minutes. Cells were fixed and examined with fluorescence microscopy. […] Nuclei were stained with Hoechst dye (blue). C-MCF7 cells pretreated with either SCTT-pHLIP or pHLIP peptide alone were treated with 1μM IGFBP3 for 1hour in DMEM serum free medium. Cell lysates were subjected to immunoblot using anti-human phosphor-beclin1 antibody. […] TEXT PRINTED IN THE PICTURE: (A) unlabeled peptide: ki 0.02342 ± 0.001492 DOUBTS OF THE COPYIST ABOUT THIS PICTURE: Panel A, ki: no unit is printed with the value. The substance label 'unlabeled peptide' is taken from the printed x-axis title because the fit box names no substance. / Panel A: 'c 0.1 ± 0' in the fit box was left out as a fit parameter whose meaning is unclear."}, "MDA-MB231 cells": {"tested_on": "MDA-MB231 cells", "experiment": "pHLIP-Cy3 insertion, fluorescence microscopy, MDA-MB231 cells in 2D and 3D culture", "format": "cell-based, human", "conditions": "2D (3 days) and 3D (0.5% low melting agarose, 5 days) culture; 6 h at 37°C in DMEM buffered with PBS", "procedure": "A- MDA-MB231 cells were grown in a complete DMEM medium for 3 days or in 0.5% low melting agarose in complete medium for 5 days were treated with phLIP-Cy3 peptide in DMEM buffered with PBS for 6 hour at 37°C. Growth media were replaced with completed DMEM medium buffered with carbonate. Cells were imaged for insertion of the peptide. […] Nuclei of the cells were stained with Hoechst stain (blue) B-Cells pretreated with pHLIP-TM219 peptide or pHLIP peptide alone for 5 days in 0.5% low melting agarose in DMEM complete media supplemented with 1 μM IGFBP3. The peptides were mixed with DMEM buffered with PBS and added to the spheroids grown in low melting agarose. After 6 hours, the media were replaced with completed DMEM media buffered with carbonate pH 7.2. Cells were incubated for additional 9 days at 37°C in a CO2 incubator. […] Living cells were assessed by Hoechst dye stain (Blue)."}, "[2]": {"tested_on": "cytosolic calcium in MCF7 cells", "experiment": "cytosolic calcium, colorimetric kit, MCF7 cells", "format": "cell-based, human", "conditions": "1 μM IGFBP3, 5 min, serum free", "procedure": "We used a colorimetric kit to measure the increase in the cytosolic calcium in MCF7 cells according to the provider recommendations (Abcam). MCF7 cells were grown in completed DMEM medium at density of 5x10^5 cells/ml in 6 well plates. We compared the effects of 1μM IGFBP3 on the wild type, TM219 knockout and untreated MCF7 cells after 5 minutes in serum free medium. As a positive control we used […] ionomycin (Thermofishter Scientific). As a negative control we pretreated MCF7 cells with […] BAPTA for 30 minutes (Thermofisher Scientific). Experiments were run in triplicate."}, "[3]": {"tested_on": "TM219 complex (calmodulin, CaMKII) in MCF7 cells", "experiment": "immunopurification of TM219 complex, anti-CaMKII / anti-calmodulin immunoblot, MCF7 cells", "format": "cell-based, human", "conditions": "1 μM IGFBP3, versus untreated and normal mouse antibody beads"}, "Vero cells": {"tested_on": "Vero cells", "experiment": "DIC microscopy of internal vacuoles, Vero cells", "format": "cell-based", "conditions": "wild type versus TM219 knockout Vero cells; 1 μM IGFBP3, 1 h, serum free"}, "[4]": {"tested_on": "cytosolic calcium in MCF7 cells", "conditions": "independent on IGF or heparin; ref [55]; cited from earlier work", "source_text": "After that we compared the effects of IGFBP3 on elevation of intracellular calcium in these cells. […] However, no sign ..."}, "[5]": {"tested_on": "phospho-Beclin1 in MCF7 cells", "experiment": "Beclin1 phosphorylation / autophagy immunoblot, MCF7 cells", "format": "cell-based, human", "conditions": "1 μM IGFBP3, 1 h, serum free; wild type versus TM219 knockout; anti-phospho-beclin1, anti-LC3", "procedure": "For phosphorylation assay of Beclin1 protein, we treated 6x10^6 MCF7 cells grown in DMEM serum free medium with 1 μM IGFBP3. Lysates were prepared in RIPA buffer in presence of 2X protease and phosphatase inhibitors (Thermofisher Scientific). Lysates were clarified by centrifugation at 10,000 rpm for 30 minutes at 4°C. Finally, the blotted membranes were probed with anti-TM219, LC3, calmodulin, phospho-beclin1, or β-actin. To quantify the ratio between LC3-II and LC3-I, we used an image densitometry method using ImageJ software."}, "[6]": {"experiment": "fluorescence anisotropy control binding to empty nanodisc", "procedure": "Reconstituted TM219 into 13 nm nanodisc and labeling of our purified calmodulin or IGFBP3 (R&D systems) with BODIPY-TRM-X-succinimidyl ester dye were described previously. […] Serial dilution of the TM219 short cytoplasmic peptide (1pM-10mM) was used. Fluorescence anisotropy assays were done in triplicates and data represent an average of three independent experiments. Each sample was run in triplicates and an average of 60 readings was used for calculation. Binding constants (KDs) or inhibition constant (Ki) were determined with Origin 7 (OriginLab) by fitting the data as described previously."}, "[7]": {"tested_on": "TM219-calmodulin complex in THP1 cells", "experiment": "co-immunoprecipitation of TM219 complex, anti-calmodulin immunoblot, THP1 cells", "format": "cell-based, human", "conditions": "1 μM IGFBP3, 1 h, serum free", "procedure": "For immunoprecipitation of TM219 complex, we treated 6X10^6 THP1 cells grown in Roswell park memorial institute 1640 medium (PRIM) without serum with 1 μM IGFBP3 for 1 hour. Cells were lysed with immunoprecipitation buffer (1% NP-40, 150 mM NaCl, and 50 mM Tris pH 8.4 in the presence of 2 X protease inhibitors (Roche)). Crosslinking of mouse anti-TM219 antibodies to protein A-Sepharose was performed as previously described. Briefly, 1 mg of the antibody was incubated with 1 ml protein A-Sepharose beads (Thermofisher scientific), with continuous mixing at 4°C for 2 h. The beads were then centrifuged and washed five times with PBS and once with 200 mM sodium borate, pH 9. Equal volumes of 40 mM dimethylsuberimidate (Thermofisher scientific) in 200 mM sodium borate were mixed with the beads, and the suspension was incubated, with continuous mixing, at room temperature for 30 min. The reaction was terminated by addition of equal volumes of 400 mM ethanolamine, and the sample was incubated for an additional 30 min. The beads were packed into a 1-cm-diameter column (Bio-RAD) and washed three times with 2 bed volumes of PBS and once with 4 bed volumes of 100 mM glycine-HCl at pH 2.4 to remove non-cross-linked antibodies. Finally, the cross-linked antibody beads were washed with PBS until the pH reached 7 and stored at 4°C in PBS containing 0.02% sodium azide. […]"}}, "note": "Entries after “also recorded” stand apart in the source; their conditions may differ.", "data": [{"compound": "CCN(CC)CCCC(C)Nc1ccnc2cc(Cl)ccc12", "note": "(centres unmarked) [chloroquine, reference compound]", "values": [{"measurement": "LC3-II punctate accumulation with chloroquine", "setting": "[1]; 200 μM chloroquine plus 1 μM IGFBP3", "value": "this punctate stain was accumulated in the cytoplasm"}, {"measurement": "LC3-II punctate accumulation with chloroquine", "setting": "[1]; 200 μM chloroquine plus 1 μM IGFBP3, listed as CQ", "value": "accumulates LCII positive vesicles in the cytoplasm of Vero cells"}]}, {"compound": "AEQNPIYWARYADWLFTTPLLLLDLALLVDADEGTC-s-s-C(cy3) [pHLIP-cy3]", "values": [{"measurement": "insertion into plasma membrane of MCF7 cells", "setting": "MCF7 cells", "value": "Staining of the cells with red dye indicates insertion of pHLIP-cy3 into the cell membrane of MCF7 cells"}, {"measurement": "insertion into plasma membrane of MDA-MB231 cells", "setting": "MDA-MB231 cells", "value": "insertion of pHLIP-cy3 peptide into the plasma membrane of MAD-MB231 in both two dimension and three dimension cell cultures"}]}, {"compound": "Insulin-like growth factor binding protein 3 [IGFBP3]", "values": [{"measurement": "cytosolic calcium, TM219 knockout versus wild type", "setting": "[2]", "value": "no significant difference"}, {"measurement": "cytosolic calcium", "setting": "[2]; % of ionomycin reading, BAPTA reading subtracted", "value": "triggered elevation of the cytosolic calcium in MCF7 independent of TM219 receptor; also recorded: relatively higher signal of calcium relative to untreated MCF7 cells"}, {"measurement": "association of calmodulin and CaMKII with TM219 complex", "setting": "[3]", "value": "TM219 protein recruits calmodulin and calmodulin dependent kinase II after treatment with IGFBP3; also recorded: Purified proteins from cells treated with IGFBP3 reacted specifically with anti-CaMKII antibody"}, {"measurement": "internal vacuoles", "setting": "Vero cells", "value": "TM219 wild type Vero cells demonstrated larger internal vacuoles after treatment with IGFBP3 compared to TM219 knockout Vero cells; also recorded: wild type Vero cells showed larger internal vacuoles"}, {"measurement": "intracellular calcium release in MCF7 cells (previous studies)", "setting": "[4]", "value": "activates intracellular rapid release of intracellular calcium in MCF7 cells"}, {"measurement": "autophagy activation in MCF7 cells", "setting": "[5]", "value": "activates autophagy in MCF7 cells"}, {"measurement": "binding of labelled IGFBP3 to empty nanodisc", "setting": "[6]; empty nanodisc 0-2000 nM, fluorescence anisotropy", "value": "No specific binding was detected"}, {"measurement": "TM219-calmodulin complex formation (co-immunoprecipitation)", "setting": "[7]", "value": "immunoprecipitation with anti-TM219 consistently brought down calmodulin"}, {"measurement": "LC3 processing (LC3-II punctate staining)", "setting": "[1]; Vero cells with LC3-mRFP, 1 μM IGFBP3, 1 h, serum free, mean +/- SEM plotted", "value": "significant increase in processing of LC3; also recorded: significant increase in number of LCII punctate stain"}]}, {"compound": "calmodulin", "values": [{"measurement": "binding of calmodulin to empty nanodisc", "setting": "[6]; empty nanodisc 0-100 μM, 1 mM calcium chloride, 1 μM IGFBP3", "value": "No specific binding was detected; also recorded: No specific binding was observed"}]}]}
